Where a SMILES comes first, the peptide text is derived from it. [ ]: non-standard residue; d: D form. The star is where a group is joined. Cha = N[C@@H](CC1CCCCC1)C(=O)O; dChg = N[C@@H](C(=O)O)C1CCCCC1; pNA = O=[N+]([O-])c1ccc(N*)cc1; dAbu = CC[C@@H](N)C(=O)O; Abu = CC[C@H](N)C(=O)O; Ms = CS(=O)(=O)*

Eleven compounds from patent US5225532A, “Symmetrical bipeptides containing a polyalkylene glycol residue, method of preparation and use in the assay of proteases” (Serbio, priority 1990, dated 1993) can be followed below.

What all share (type): biochemical
One experiment concerns the target Plasmin (Homo sapiens, UniProt P00747). Put plainly: Enzymic hydrolysis of chromogenic substrate by plasmin (ΔOD/min). Particulars: equimolar doses, activity of reference CP 3 taken as 100%. The procedure: (§1) The tripeptide compounds of formula I and their addition salts are useful in the determination of the enzymes involved in hemostasis. In particular, they constitute specific substrates for Factor Xa, plasmin or thrombin. The recommended method of determining these enzymes comprises bringing a given amount of a tripeptide of formula I or of one of its addition salts (at a concentration of the order of 10 mg/ml) into contact, in an appropriate aqueous liquid medium such as a buffered isotonic solution, with a test sample (diluted if appropriate) which may contain the target enzyme, for at least 0.5 h at a temperature of between RT and 40° C., especially 37° C.
(§2) The activity of the tripeptides according to the invention towards enzymes involved in hemostasis was determined by conventional methods such as those described in EP-A-0 280 160 (see page 14), the hydrolysis rate being assessed by the variation in optical density with time (ΔOD/min). The results obtained have been collated in Table II below, where the activity of reference products (CP 1 to CP 3) is specified as being equal to 100% for the sake of convenience.
(§3) Table II below summarizes the results of the comparative tests which were carried out at equimolar doses with the products of the invention and with standard substances, whose activity was taken as being equal to 100%.

The target in a further experiment is Thrombin (Homo sapiens, UniProt P00734). Put plainly: Enzymic hydrolysis of chromogenic substrate by thrombin (ΔOD/min). The conditions noted are these: for Activity towards Thrombin (hydrolysis rate relative to reference): equimolar doses, activity of reference CP 2 taken as 100%, hydrolysis rate as ΔOD/min. As to the method: as §1, §2, §3
The next experiment concerns the target Factor Xa (Homo sapiens, UniProt P00742). Put plainly: Enzymic hydrolysis of chromogenic substrate by Factor Xa (ΔOD/min). The conditions noted are these: equimolar doses, activity of reference CP 1 taken as 100%. As to the method: as §1, §2, §3

Plasmin, sequence (P00747 581-810 limits assumed, species assumed): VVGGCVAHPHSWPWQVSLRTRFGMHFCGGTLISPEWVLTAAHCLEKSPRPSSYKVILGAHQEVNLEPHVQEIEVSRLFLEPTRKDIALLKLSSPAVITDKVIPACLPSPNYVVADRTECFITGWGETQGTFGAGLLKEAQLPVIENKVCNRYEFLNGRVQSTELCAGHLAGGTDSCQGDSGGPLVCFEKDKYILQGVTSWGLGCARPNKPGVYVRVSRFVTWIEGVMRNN
Plasmin, sequence (P00747 97-580 partner limits assumed, species assumed): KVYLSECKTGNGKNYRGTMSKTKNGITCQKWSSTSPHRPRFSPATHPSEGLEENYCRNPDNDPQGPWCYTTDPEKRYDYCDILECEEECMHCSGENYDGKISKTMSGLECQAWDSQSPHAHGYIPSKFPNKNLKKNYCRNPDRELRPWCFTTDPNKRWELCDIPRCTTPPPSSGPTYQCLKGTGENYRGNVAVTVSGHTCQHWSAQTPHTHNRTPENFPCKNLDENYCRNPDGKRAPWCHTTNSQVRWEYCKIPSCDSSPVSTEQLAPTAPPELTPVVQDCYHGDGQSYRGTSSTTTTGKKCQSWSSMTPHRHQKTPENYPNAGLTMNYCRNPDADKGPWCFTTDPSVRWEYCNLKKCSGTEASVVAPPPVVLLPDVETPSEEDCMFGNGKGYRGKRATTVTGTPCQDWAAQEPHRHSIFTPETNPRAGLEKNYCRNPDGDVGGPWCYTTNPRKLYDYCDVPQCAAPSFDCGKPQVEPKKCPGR
Factor Xa, sequence (P00742 235-488 limits assumed): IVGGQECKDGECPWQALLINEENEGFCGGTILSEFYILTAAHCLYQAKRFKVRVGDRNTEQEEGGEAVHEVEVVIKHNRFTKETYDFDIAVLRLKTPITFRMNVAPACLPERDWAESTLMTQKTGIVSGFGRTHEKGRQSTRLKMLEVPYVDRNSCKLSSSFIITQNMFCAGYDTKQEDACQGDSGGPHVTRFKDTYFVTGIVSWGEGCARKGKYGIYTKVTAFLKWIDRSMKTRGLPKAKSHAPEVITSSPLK
Factor Xa, sequence (P00742 41-179 partner limits assumed): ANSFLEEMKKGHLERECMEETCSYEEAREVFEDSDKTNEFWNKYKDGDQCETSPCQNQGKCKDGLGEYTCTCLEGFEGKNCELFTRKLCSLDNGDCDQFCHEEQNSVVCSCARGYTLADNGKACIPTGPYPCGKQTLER

Turning to “PEG300 (D-Leu-Gly-L-Arg-pNA)2.2AcOH [Ex. 8]”, the “Activity towards Plasmin (hydrolysis rate relative to reference)” value on Plasmin came out at 150%. On Thrombin, the “Activity towards Thrombin (hydrolysis rate relative to reference)” value is 25%. For the same compound, the “Activity towards Xa (hydrolysis rate relative to reference)” value at Factor Xa is given as 60%.

On to `CC(C)C[C@@H](NS(C)(=O)=O)C(=O)NCC(=O)N[C@@H](CCCNC(=N)N)C(=O)Nc1ccc([N+](=O)[O-])cc1` [CP 1, MeSO2D-Leu--GlyL-Arg-pNA.AcOH, reference compound] (Ms-[dL]-Gly-Arg-pNA), for which the “Activity towards Plasmin (hydrolysis rate relative to reference)” value on Plasmin stood at 30%. On Thrombin, the “Activity towards Thrombin (hydrolysis rate relative to reference)” value was 18%. For the same compound, the “Activity towards Xa (hydrolysis rate relative to reference)” value at Factor Xa was found to be 100%.

Consider “PEG400 (D-Leu-Gly-L-Arg-pNA)2.2AcOH [Ex. 9]”, for which, on Plasmin, the “Activity towards Plasmin (hydrolysis rate relative to reference)” value was determined as 165%. Also, at Thrombin, the “Activity towards Thrombin (hydrolysis rate relative to reference)” value worked out at 34%. Further, the “Activity towards Xa (hydrolysis rate relative to reference)” value on Factor Xa is 74%.

`CC[C@@H](N)C(=O)N[C@@H](CC1CCCCC1)C(=O)N[C@@H](CCCNC(=N)N)C(=O)Nc1ccc([N+](=O)[O-])cc1` [CP 3, HD-Abu-L-CHA-L-Arg-pNA.2AcOH, reference compound] (H-[dAbu]-[Cha]-Arg-pNA): the “Activity towards Plasmin (hydrolysis rate relative to reference)” value on Plasmin was 100%. For the same compound, the “Activity towards Thrombin (hydrolysis rate relative to reference)” value on Thrombin was 10%. In addition, at Factor Xa, the “Activity towards Xa (hydrolysis rate relative to reference)” value was determined as 14%.

As for “PEG600 (CO-Gly-L-Pro-L-Arg-pNA)2 [Ex. 3]”, the “Activity towards Plasmin (hydrolysis rate relative to reference)” value on Plasmin came to 122%. Besides, at Thrombin, the “Activity towards Thrombin (hydrolysis rate relative to reference)” value was 50%. Moreover, the “Activity towards Xa (hydrolysis rate relative to reference)” value at Factor Xa came to 10%.

Regarding “PEG200 (D-Nle-L-CHA-L-Arg-pNA)2.2AcOH [Ex. 5]”, the “Activity towards Plasmin (hydrolysis rate relative to reference)” value at Plasmin is listed as 15%. Further, the “Activity towards Thrombin (hydrolysis rate relative to reference)” value at Thrombin came to 110%. Also, on Thrombin (in words, versus CP 1 as printed), the “Sensitivity towards thrombin compared with reference substrate” value is reported as “more sensitive than the reference substrate CP 1”. In addition, the “Activity towards Xa (hydrolysis rate relative to reference)” value at Factor Xa is listed as 20%.

“PEG200 (D-Leu-Gly-L-Arg-pNA)2.2AcOH [Ex. 6]”: on Plasmin, the “Activity towards Plasmin (hydrolysis rate relative to reference)” value stood at 188%. The “Activity towards Thrombin (hydrolysis rate relative to reference)” value at Thrombin was found to be 23%. Also, on Factor Xa, the “Activity towards Xa (hydrolysis rate relative to reference)” value turned out to be 105%.

With `CC[C@H](NC(=O)[C@H](N)C1CCCCC1)C(=O)N[C@@H](CCCNC(=N)N)C(=O)Nc1ccc([N+](=O)[O-])cc1` [CP 2, HD-CHG-L-Abu-L-Arg-pNA.2AcOH, reference compound] (H-[dChg]-[Abu]-Arg-pNA), on Plasmin, the “Activity towards Plasmin (hydrolysis rate relative to reference)” value was 77%. For the same compound, the “Activity towards Thrombin (hydrolysis rate relative to reference)” value at Thrombin is reported as 100%. Moreover, the “Activity towards Xa (hydrolysis rate relative to reference)” value on Factor Xa was 14%.

As for “PEG200 (Gly-L-Pro-L-Arg-pNA)2.2AcOH [Ex. 2]”, the “Activity towards Plasmin (hydrolysis rate relative to reference)” value at Plasmin came to 130%. The “Activity towards Thrombin (hydrolysis rate relative to reference)” value at Thrombin is given as 34%. In addition, at Factor Xa, the “Activity towards Xa (hydrolysis rate relative to reference)” value is given as 6%.

Turning to “PEG200 (CO-D-CHA-Gly-L-Arg-pNA)2 [Ex. 7]”, the “Activity towards Plasmin (hydrolysis rate relative to reference)” value on Plasmin is given as 112%. Also, the “Activity towards Thrombin (hydrolysis rate relative to reference)” value on Thrombin was determined as 21%. Also, at Factor Xa, the “Activity towards Xa (hydrolysis rate relative to reference)” value worked out at 45%.

Consider “PEG200 (D-Glu(OBzl)-L-Pro-L-Arg-pNA)2.2AcOH [Ex. 4]”, for which the “Activity towards Plasmin (hydrolysis rate relative to reference)” value at Plasmin is reported as 289%. Besides, the “Activity towards Thrombin (hydrolysis rate relative to reference)” value at Thrombin is given as 45%. Also, the “Activity towards Xa (hydrolysis rate relative to reference)” value on Factor Xa was determined as 11%.
